# Reference: patent US10548858B2, “Inhibition of sphingosine 1-phosphate receptor for treatment and prevention of lymphedema” (Memorial Sloan Kettering Cancer Center, priority 2016, dated 2020)
# Entries after “also recorded” stand apart in the source; their conditions may differ.
# Key:
# [1] = system: lymphedema; settings: cited from earlier work
# [2] = system: lymphedema (mouse tail lymphatic ablation); assay: Mouse tail skin/lymphatic ablation model of lymphedema, 6 weeks of treatment; type: in vivo; settings: wild-type mice, 6 weeks after lymphatic ablation
# Source text: To determine if FTY720 treatment can be useful for treating lymphedema, we next performed tail skin/lymphatic ablations on wild-type mice and treated experimental animals with FTY720 and control animals with vehicle only for 6 weeks.
# To induce lymphedema, we used a mouse tail model in which a 5 vmm portion of the mid-tail is excised and the deep lymphatic collecting vessels are ligated. Avraham et al., Am. J. Pathol. 177:3202 (2010); Clavin et al., Am. J. Physiol. Heart Circ. Physiol. 295:H2113 (2008); Rutkowski et al., Microvasc. Res. 72:161 (2006); Tabibiazar et al., PloS Med 3:e254 (2006). This model reliably results in sustained tail swelling, severe impairment in lymphatic function, and histopathologic features consistent with clinical lymphedema, lasting as long as 10 weeks after surgery. Avraham et al., Am. J. Pathol. 177:3202 (2010); Clavin et al., Am. J. Physiol. Heart Circ. Physiol. 295:H2113 (2008); Rutkowski et al., Microvasc. Res. 72:161 (2006); Tabibiazar et al., PloS Med 3:e254 (2006). In other experiments, animals were randomized to either PLND or sham surgery. PLND was performed as previously reported, removing the nodes, surrounding fat pad, and afferent/efferent lymphatics. Control animals underwent sham popliteal surgeries where a skin incision was made in the area of the popliteal lymph node without nodal resection. Although sustained lymphedema is not observed here, it has previously been described as a means of analyzing regeneration of collateral lymphatics and collecting lymphatic pumping capacity. Proulx et al., Biomaterials 34:5128 (2013); Sharma et al., Am. J. Physiol. Heart and Circul. Physiol. 292:H3109 (2007).
# In other experiments, WT mice underwent tail or popliteal lymphatic ablation surgeries and were subsequently randomized to treatment with FTY720 (Sigma Aldrich, St. Louis, Mo.), an […] modulator that blocks lymphocyte egress from lymph nodes. Metzler et al., Int. Immunol. 20:633 (2008); Kharel et al., J. Biol. Chem. 280:36865 (2005). Briefly, FTY720 was dissolved in water as per the manufacturer's recommendations, and supplied ad libitum starting the day of lymphatic ablation. Mice received an estimated 1.25 mg/kg/day for 2 or 6 weeks (for PLND or tail surgeries, respectively) until tissues were harvested. […]
# Tail volumes were calculated weekly using the truncated cone formula. […]
# Subcutaneous adipose tissue thickness measurements were analyzed by 2 blinded reviewers (n=5-6 animals/group) using standardized cross-sections by measuring from the width of tissues bounded by the reticular dermis to the deep fascia in 4 standardized regions per section. Capillary lymphatic vessel area was quantified as previously described using Panoramic viewer software (3DHistech, Budapest, Hungary) in four 40× high-power fields/animal per group. […]
# [3] = system: CD4+ cells; assay: CD4+ cell flow cytometry of lymph nodes and hind limb skin after PLND and adoptive transfer, with or without FTY720; type: in vivo, mouse; settings: CD4KO mice, PLND, 24 hours after adoptive transfer of CD4+ cells
# Description: Metzler et al., Int. Immunol. 20:633 (2008); Kharel et al., J. Biol. Chem. 280:36865 (2005). Control animals were treated with vehicle alone.
# To induce lymphedema, we used a mouse tail model in which a 5 vmm portion of the mid-tail is excised and the deep lymphatic collecting vessels are ligated. Avraham et al., Am. J. Pathol. 177:3202 (2010); Clavin et al., Am. J. Physiol. Heart Circ. Physiol. 295:H2113 (2008); Rutkowski et al., Microvasc. Res. 72:161 (2006); Tabibiazar et al., PloS Med 3:e254 (2006). This model reliably results in sustained tail swelling, severe impairment in lymphatic function, and histopathologic features consistent with clinical lymphedema, lasting as long as 10 weeks after surgery. Avraham et al., Am. J. Pathol. 177:3202 (2010); Clavin et al., Am. J. Physiol. Heart Circ. Physiol. 295:H2113 (2008); Rutkowski et al., Microvasc. Res. 72:161 (2006); Tabibiazar et al., PloS Med 3:e254 (2006). […]
# Culture expanded naïve CD4^+ cells (1×10^7) were suspended in 100 μL of sterile phosphate buffered saline (PBS) and adoptively transferred to CD4KO mice by weekly retro-orbital sinus injections beginning two weeks after surgery for 2 or 4 weeks (for PLND or lymphatic tail ablation, respectively), followed by sacrifice. […] Delivery of CD4^+ cells was confirmed using flow cytometry to quantify CD4^+ cells in single cell suspensions created from spleens and aortic lymph nodes. […]
# [4] = FTY720 estimated 1.25 mg/kg/day in water, vs vehicle
SMILES,clinical success in patients with lymphedema [1],toxicity ([1]; patients with lymphedema),"tail fibrosis (gross analysis) [2, 4]","tail swelling (gross analysis) [2, 4]","fibroadipose tissue deposition (thickness) ([2]; cross-sectional histology, vs vehicle control)",tail volumes (percentage change) ([2]; vs vehicle control),CD4+ cells in the hind limb skin ([3]; vs vehicle treated PLND mice),"accumulation of CD4+ cells in the inguinal lymph node ([3]; vs vehicle, FTY720 in drinking water, estimated 1.25 mg/kg/day)"
O=c1ccc2ccccc2o1 [Coumarin],modest success,significant toxicity including liver failure and death,–,–,–,–,–,–
"CCCCCCCCc1ccc(CCC(N)(CO)CO)cc1 [FTY720, 2-amino-2-[2-(4-octylphenyl)ethyl]propane-1,3-diol]",–,–,lack of swelling and fibrosis; also recorded: markedly decreased,lack of swelling; also recorded: markedly decreased,decreased fibroadipose tissue deposition; also recorded: significant decreases,lack of swelling; also recorded: significant decreases,decreased the number of these cells in hind limb skin; also recorded: marked decrease,prevented release of CD4+ cells from the lymph node; also recorded: increased significantly
